Tests used:
[1] = test system: atrial preparations from WT mice; assay: Isolated left and right atrial preparations from wild-type (WT) littermates; design: species or system mouse; conditions: for effect on beating rate in WT right atrium: spontaneously beating right atrium
Method: (§1) In brief, the right or left atrial preparations from the mice were isolated and mounted in organ baths as previously described (Gergs et al. [2013]; Neumann et al. [2003]). […] The solution was continuously gassed with 95% O2 and 5% CO2 and maintained at 37 °C and pH 7.4 (Kirchhefer et al. [2004]; Neumann et al. [1998], [2003]). Spontaneously beating right atrial preparations from mice were used to study any chronotropic effects.
(§2) The drug application was as follows.

[2] = test system: Langendorff hearts from WT mice; assay: Langendorff perfused hearts from WT mice; design: species or system mouse; conditions: data not shown, n = 3
Method: (§3) We followed previously reported methods for the treatment of the animals. This included the removal of the heart and lungs from the thoracic cavity, placing the dissected heart onto a cannula, the use of custom-made equipment, the buffer composition, quantification of the force from the left ventricular apex, digitization of the recordings, and freeze clamping the hearts (Boknik et al. [2019]; Gergs et al. [2019b]).
(§4) Isolated hearts were prepared according to Langendorff (1895).

porcine 5-HT4 receptors = target: porcine 5-HT4 receptors; design: method as in Medhurst and Kaumann [1993]; conditions: isolated right atrial preparations of pigs; ref Medhurst and Kaumann [1993]; cited from earlier work
human 5-HT4 receptor [3] = target: T1, human 5-HT4 receptor (Homo sapiens, UniProt Q13639); assay: Isolated electrically stimulated (1 Hz) left atrial preparations from 5-HT4-TG mice, organ bath contractility; design: species or system human (expressed in cardiomyocytes of transgenic mice)
T1 construct: expressed in transfected cells; host or cells: cardiomyocytes of transgenic mice (alpha-myosin heavy chain promoter); isolated left and right atria and Langendorff-perfused hearts
From the text: (§5) A mouse with cardiomyocyte-specific expression of the human 5-HT4(a) receptor has been generated in our laboratory (Gergs et al. [2010]). The cardiac myocyte-specific expression was achieved by the use of the α-myosin heavy chain promoter. The age of the animals studied in the atrial contraction experiments was around 4 months. Both genders were studied. All mice were housed under conditions of optimum light, temperature, and humidity with food and water provided ad libitum. The investigation conformed to the Guide for the Care and Use of Laboratory Animals as published by the National Research Council (2011). The animals were handled and maintained according to the approved protocols of the Animal Welfare Committee of the University of Halle-Wittenberg, Halle, Germany.
as §1, §2

human 5-HT4 receptor [4] = target: T1, human 5-HT4 receptor; assay: Spontaneously beating right atrial preparations from 5-HT4-TG mice, beating rate; design: species or system human (expressed in cardiomyocytes of transgenic mice); conditions: right atrium of 5-HT4-TG; for Beating rate: 5-HT 1 µM; for Beating rate / Beating rate in % of 1 µM 5-HT: bufotenin 3 µM, tryptamine 100 µM
From the text: as §5, §1, §2

MAO A = test system: MAO A; design: method as in Fisar et al. [2010]; conditions: in vitro, irreversible; ref Fisar et al. [2010]; read-out: IC50 (half inhibitory concentration) MAO A; cited from earlier work
MAO B = test system: MAO B; design: method as in Fisar et al. [2010]; conditions: in vitro, irreversible; ref Fisar et al. [2010]; read-out: IC50 (half inhibitory concentration) MAO B; cited from earlier work
[5] = target: T2, human cardiac 5-HT4 receptors (Homo sapiens, UniProt Q13639); assay: Isolated electrically stimulated (1 Hz) human right atrial preparations, contractility
T2 construct: from tissue; host or cells: human right atrial preparations (musculi pectinati) from male bypass-surgery patients
From the text: The contractile studies on human right atrial preparations were done using the same setup and buffer as used in the mouse studies (see “Contractile studies in mice” section). The samples were obtained from male patients that underwent a bypass surgery (Table 1). Drug therapy included β-receptor blockers, calcium channel blockers, angiotensin-converting enzyme inhibitors/angiotensin receptor blockers, diuretics, direct oral anti-coagulants, metformin, statins, and acetyl salicylic acid. Our methods used for atrial contraction studies in human samples have been previously published and were not altered in this study (Boknik et al. [2019]; Gergs et al. [2009], [2017b], [2018]). This study complies with the Declaration of Helsinki and has been approved by the local ethics committee (hm-bü 04.08.2005) and all patients gave informed consent.

[6] = test system: phosphorylation state of phospholamban (serine 16); assay: Western blot of serine 16 phosphorylation of phospholamban in cardiac preparations of 5-HT4-TG mice; conditions: 1 µM
[7] = design: method as in Ott [2001]; conditions: humans, ref Ott [2001], cited from earlier work
human 5-HT4 receptor [8] = target: T1, human 5-HT4 receptor; assay: Langendorff perfused hearts from 5-HT4-TG mice; design: species or system human (expressed in cardiomyocytes of transgenic mice); conditions: 1 µM, n = 5, p < 0.05
Method: as §3, §4

[9] = test system: phosphorylation state of phospholamban (serine 16); assay: Western blot of serine 16 phosphorylation of phospholamban in cardiac preparations of WT mice; conditions: 1 µM; Langendorff hearts from WT
[10] = test system: phosphorylation state of phospholamban (serine 16); assay: Western blot of serine 16 phosphorylation of phospholamban in human right atrial preparations; conditions: electrically stimulated human right atrial preparations
From the text: This is seen in the original tracings (Fig. 7A). […] Calsequestrin was monitored as a loading control in these gels. […] The mouse samples are shown for comparison.

[11] = left atrium of 5-HT4-TG, 5-HT 1 µM, bufotenin 3 µM, tryptamine 100 µM
[12] = left atrium of 5-HT4-TG, bufotenin 3 µM, tryptamine 100 µM
[13] = pD2 (negative decadic logarithm of EC50), force of contraction, left atrium of 5-HT4-TG
[14] = pD2, dF/dtmax, left atrium of 5-HT4-TG
[15] = pD2, dF/dtmin, left atrium of 5-HT4-TG
[16] = pD2, time of relaxation (TR), left atrium of 5-HT4-TG
[17] = pD2, time to peak (TTP), left atrium of 5-HT4-TG

T1 sequence (Q13639 1-387 isoform Q13639-2): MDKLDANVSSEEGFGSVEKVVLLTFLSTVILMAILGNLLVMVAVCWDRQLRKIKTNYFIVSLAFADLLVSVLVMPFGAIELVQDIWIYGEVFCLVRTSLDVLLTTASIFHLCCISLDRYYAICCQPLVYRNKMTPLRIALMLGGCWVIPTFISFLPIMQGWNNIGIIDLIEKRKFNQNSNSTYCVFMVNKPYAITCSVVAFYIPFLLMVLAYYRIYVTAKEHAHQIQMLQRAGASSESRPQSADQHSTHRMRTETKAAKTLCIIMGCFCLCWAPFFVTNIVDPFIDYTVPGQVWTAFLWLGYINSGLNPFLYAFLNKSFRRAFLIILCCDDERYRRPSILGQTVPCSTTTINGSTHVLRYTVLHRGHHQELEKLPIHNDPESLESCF
T2 sequence (Q13639 whole entry): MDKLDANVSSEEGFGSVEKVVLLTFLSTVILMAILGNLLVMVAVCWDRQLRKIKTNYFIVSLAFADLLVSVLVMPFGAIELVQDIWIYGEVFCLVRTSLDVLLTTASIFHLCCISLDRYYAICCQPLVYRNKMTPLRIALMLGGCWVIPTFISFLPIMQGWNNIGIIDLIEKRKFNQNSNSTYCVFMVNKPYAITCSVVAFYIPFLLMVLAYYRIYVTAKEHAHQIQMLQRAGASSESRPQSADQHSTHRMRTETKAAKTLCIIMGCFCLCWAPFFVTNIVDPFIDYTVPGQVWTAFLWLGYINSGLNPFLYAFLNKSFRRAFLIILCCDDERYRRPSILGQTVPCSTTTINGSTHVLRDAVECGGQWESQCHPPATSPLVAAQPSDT

## NCCc1c[nH]c2ccccc12 [Tryptamine, tryptamine]
[1]
  effect on beating rate in WT right atrium: not from WT
[2]
  effect in Langendorff hearts from WT mice: inactive
Porcine 5-HT4 receptors
  pD2, beating rate: 4.87
Human 5-HT4 receptor [3]; 5-HT4-TG atrial preparations
  agonist efficacy on 5-HT4 receptors compared to 5-HT: partial agonist
Human 5-HT4 receptor [3]; 5-HT4-TG, 1 µM isoproterenol given after
  efficacy to increase force of contraction and beating rate compared with isoproterenol: less effective than isoproterenol
Human 5-HT4 receptor [3]; [11]
  Force: 5.74 ± 0.84 mN
  TR: 27.61 ± 1.25 ms
  TTP: 13.28 ± 0.07 ms
  dF/dtmax: 393.56 ± 52.26 mN/s
Human 5-HT4 receptor [3]; [12]
  Force in % of 1 µM 5-HT: 81% ± 7%
  TR in % of 1 µM 5-HT: 97% ± 2%
  TTP in % of 1 µM 5-HT: 94% ± 1%
  dF/dtmax in % of 1 µM 5-HT: 78% ± 5%
  dF/dtmin in % of 1 µM 5-HT: 82% ± 4%
Human 5-HT4 receptor [3]; [13]
  EC50: 26.9 µM
Human 5-HT4 receptor [3]; [14]
  EC50: 18.6 µM
Human 5-HT4 receptor [3]; [15]
  EC50: 18.6 µM
Human 5-HT4 receptor [3]; [16]
  EC50: 2.88 µM
Human 5-HT4 receptor [3]; [17]
  EC50: 6.61 µM
Human 5-HT4 receptor [4]
  Beating rate: 388 ± 41 bpm
  Beating rate in % of 1 µM 5-HT: 105% ± 5%
Human 5-HT4 receptor [4]; read-out: pD2, beating rate (converted)
  EC50: 5.37 µM

## CN1[C@@H]2CC[C@H]1C[C@@H](OC(=O)c1c[nH]c3ccccc13)C2 [Tropisetron, tropisetron]
[5]; tropisetron 10 µM additionally applied
  antagonism of the positive inotropic effect of bufotenin: revoked the positive inotropic effect of bufotenin

## CN(C)CCc1c[nH]c2ccc(O)cc12 [Bufotenin, 5-hydroxy-N,N-dimethyl-tryptamine]
[6]; Langendorff hearts from 5-HT4-TG
  phosphorylation state of phospholamban on serine 16 in isolated hearts: increased
[6]; atria of 5-HT4-TG
  phosphorylation state of phospholamban on serine 16 in atria: increased
[7]; parenteral
  parenteral dose needed to bring about hallucinogenic effects: 10 mg
[7]; per-oral
  per-oral dose needed to bring about hallucinogenic effects: 100 mg
Human 5-HT4 receptor [8]; increased from 9.74 ± 1.51 mN
  force of contraction after drug: 15.6 ± 1.42 mN
Human 5-HT4 receptor [8]; increased from 227 ± 43 mN/s
  rate of relaxation after drug: 515 ± 43 mN/s
Human 5-HT4 receptor [8]; increased from 315 ± 57 mN/s
  rate of force development after drug: 653 ± 86 mN/s
[5]; 0.1–10 µM, 1 Hz
  inotropic effect in isolated paced human atrial trabeculae: concentration- and time-dependent positive inotropic effects
[9]
  phosphorylation state of phospholamban on serine 16 in isolated hearts: not WT
[1]; electrically stimulated (1 Hz) left atrium
  positive inotropic effect in WT left atrial preparations: no effects
[1]
  effect on beating rate in WT right atrium: not WT
[2]
  effect in Langendorff hearts from WT mice: inactive
[10]
  phosphorylation state of phospholamban: increased
Porcine 5-HT4 receptors
  pD2, beating rate: 5.95
Human 5-HT4 receptor [3]; left and right atrium of 5-HT4-TG, 50 µM pargyline
  change of the effects in left and right atrium by 50 µM pargyline: shifted to the left
Human 5-HT4 receptor [3]; [11]
  Force: 6.45 ± 0.75 mN
  TTP: 12.84 ± 0.15 ms
  dF/dtmax: 440.7 ± 61.25 mN/s
Human 5-HT4 receptor [3]; [12]
  Force in % of 1 µM 5-HT: 91% ± 5%
  TR in % of 1 µM 5-HT: 103% ± 2%
  TTP in % of 1 µM 5-HT: 98% ± 0%
  dF/dtmax in % of 1 µM 5-HT: 87% ± 6%
  dF/dtmin in % of 1 µM 5-HT: 88% ± 6%
Human 5-HT4 receptor [3]; [13]
  EC50: 0.17 µM
Human 5-HT4 receptor [3]; [14]
  EC50: 0.126 µM
Human 5-HT4 receptor [3]; [15]
  EC50: 0.12 µM
Human 5-HT4 receptor [3]; [16]
  EC50: 0.49 µM
Human 5-HT4 receptor [3]; [17]
  EC50: 0.355 µM
Human 5-HT4 receptor [4]; pD2, beating rate
  EC50: 0.0912 µM
Human 5-HT4 receptor [4]
  Beating rate: 396 ± 35 bpm
  Beating rate in % of 1 µM 5-HT: 107% ± 7%
